Experimental data taken from patent US20180303810A1, “Nimodipine Water-Soluble Derivative, And Preparation Method And Use Thereof” (Guangzhou Henovcom Bioscience Co., Ltd., priority 2015, published 2018).
Values after ≈ are worked out from the molar mass of the structure shown. Like-named read-outs stand apart in the source and are kept apart here.

Assays:
[1] = Release rate into plasma (conversion into Nimodipine); assay type: in vitro ADME; conditions: rat, rat anticoagulated plasma, 37° C., HPLC
Description: A portion of compound 6 was throughly mixed with rat anticoagulated plasma and incubated at 37° C. The drug was extracted with acetonitrile at different time points for HPLC analysis.
The compound sample prepared according to the above examples was dissolved in brine in an appropriate amount to formulate into a stock solution between 0.3 and 0.4 mg/mL. 20 μL of stock solution was added into the rat anticoagulated plasma previously incubated at 37° C. for 2 mins, which were throughly mixed, and incubated at 37° C. 100 μL of samples were taken at different time points, and an equal amount of acetonitrile was added to precipitate proteins, then centrifugated and the supernatant was sampled for HPLC analysis.

Solubility in water = assay type: physicochemical; conditions: pure water, thermodynamic from solid
Description: The compound sample prepared according to the above examples was accurately weighed in an appropriate amount, and pure water was added dropwise with a microsyringe while shaking until the solution became clear. The amounts of the sample and pure water were recorded and converted into mg/mL, as the solubility of the sample. The result was shown in the following table, and the original drug, i.e. Nimodipine, was used as a control.

[2] = read-out: half-life for converting compound into Nimodipine in blood (converted)
[3] = read-out: release rate into plasma t1/2
[4] = water at room temperature, read-out: solubility in water

SMILES	half-life [1, 2] [h]	half-life [1, 3] [h]	solubility (Solubility in water; read-out: solubility) [mg/mL]	solubility (Solubility in water; [4]) [mg/mL]
COCCOC(=O)C1=C(C)N(C(=O)OCOC(=O)/C=C/C(=O)O)C(C)=C(C(=O)OC(C)C)C1c1cccc([N+](=O)[O-])c1 (centres unmarked) [Compound 6]	~1.5	~1.5	> 50	120 (≈ 203 mM)
COCCOC(=O)C1=C(C)N(C(=O)OCOP(=O)(O)O)C(C)=C(C(=O)OC(C)C)C1c1cccc([N+](=O)[O-])c1 (centres unmarked) [Compound 8]	~1.5	< 1.5	> 50	105 (≈ 183 mM)
COCCOC(=O)C1=C(C)N(C(=O)OCOC(=O)[C@@H](N)CCCCN)C(C)=C(C(=O)OC(C)C)C1c1cccc([N+](=O)[O-])c1 (some centres unmarked) [Compound 9]	~2.5	~2.5	> 50	230 (≈ 371 mM)
COCCOC(=O)C1=C(C)N(COP(=O)(O)O)C(C)=C(C(=O)OC(C)C)C1c1cccc([N+](=O)[O-])c1 (centres unmarked) [Compound 12]	< 0.5	< 0.5	> 50	80 (≈ 151 mM)
CNCC(=O)OCOC(=O)N1C(C)=C(C(=O)OCCOC)C(c2cccc([N+](=O)[O-])c2)C(C(=O)OC(C)C)=C1C.Cl (centres unmarked) [Compound 16]	–	< 0.5	> 50	–
COCCOC(=O)C1=C(C)N(C(=O)OCOC(=O)[C@H](C)N)C(C)=C(C(=O)OC(C)C)C1c1cccc([N+](=O)[O-])c1.Cl (some centres unmarked) [Compound 18]	–	< 0.5	> 50	–
COCCOC(=O)C1=C(C)N(C(=O)OCOC(=O)[C@@H](N)CC(C)C)C(C)=C(C(=O)OC(C)C)C1c1cccc([N+](=O)[O-])c1.Cl (some centres unmarked) [Compound 20]	–	< 0.5	> 50	–
COCCOC(=O)C1=C(C)N(C(=O)OC(C)OC(=O)[C@H](C)N)C(C)=C(C(=O)OC(C)C)C1c1cccc([N+](=O)[O-])c1.Cl (some centres unmarked) [Compound 23]	–	< 0.5	> 50	–
COCCOC(=O)C1=C(C)N(C(=O)OC(C)OC(=O)/C=C/C(=O)[O-])C(C)=C(C(=O)OC(C)C)C1c1cccc([N+](=O)[O-])c1.[K+] (centres unmarked) [Compound 24]	–	< 1	> 50	–
COCCOC(=O)C1=C(C)N(C(=O)OCOC(=O)CCN)C(C)=C(C(=O)OC(C)C)C1c1cccc([N+](=O)[O-])c1.Cl (centres unmarked) [Compound 26]	–	< 0.5	> 50	–
COCCOC(=O)C1=C(C)N(C(=O)OC(C)OC(=O)CCCN)C(C)=C(C(=O)OC(C)C)C1c1cccc([N+](=O)[O-])c1.Cl (centres unmarked) [Compound 28]	–	< 0.5	> 50	–
COCCOC(=O)C1=C(C)N(C(=O)OCOC(=O)CCCN)C(C)=C(C(=O)OC(C)C)C1c1cccc([N+](=O)[O-])c1.Cl (centres unmarked) [Compound 30]	–	< 0.5	> 50	–
COCCOC(=O)C1=C(C)N(C(=O)OCOC(=O)C2CCNCC2)C(C)=C(C(=O)OC(C)C)C1c1cccc([N+](=O)[O-])c1.Cl (centres unmarked) [Compound 32]	–	< 0.5	> 50	–
COCCOC(=O)C1=C(C)N(C(=O)OCOC(=O)CC2CCNCC2)C(C)=C(C(=O)OC(C)C)C1c1cccc([N+](=O)[O-])c1.Cl (centres unmarked) [Compound 38]	–	< 0.5	> 50	–
COCCOC(=O)C1=C(C)N(C(=O)OCOC(=O)/C=C/C(=O)[O-])C(C)=C(C(=O)OC(C)C)C1c1cccc([N+](=O)[O-])c1.[Na+] (centres unmarked) [Compound 39]	–	< 1	> 50	–
COCCOC(=O)C1=C(C)N(C(=O)OCOC(=O)CC[C@H](N)C(N)=O)C(C)=C(C(=O)OC(C)C)C1c1cccc([N+](=O)[O-])c1.Cl (some centres unmarked) [Compound 41]	–	< 0.5	> 50	–
COCCOC(=O)C1=C(C)NC(C)=C(C(=O)OC(C)C)C1c1cccc([N+](=O)[O-])c1 (centres unmarked) [Nimodipine]	–	–	0.003 (≈ 0.00717 mM)	–
